The text below walks through data of US12091405B2, “Substituted pyrazole compounds as indoleamine 2,3-dioxygenase inhibitors” (Merck Sharp & Dohme LLC, priority 2018, dated 2024).

pIC50: −log10 of the molar value.

Chain of IDO1 (P14902 whole entry): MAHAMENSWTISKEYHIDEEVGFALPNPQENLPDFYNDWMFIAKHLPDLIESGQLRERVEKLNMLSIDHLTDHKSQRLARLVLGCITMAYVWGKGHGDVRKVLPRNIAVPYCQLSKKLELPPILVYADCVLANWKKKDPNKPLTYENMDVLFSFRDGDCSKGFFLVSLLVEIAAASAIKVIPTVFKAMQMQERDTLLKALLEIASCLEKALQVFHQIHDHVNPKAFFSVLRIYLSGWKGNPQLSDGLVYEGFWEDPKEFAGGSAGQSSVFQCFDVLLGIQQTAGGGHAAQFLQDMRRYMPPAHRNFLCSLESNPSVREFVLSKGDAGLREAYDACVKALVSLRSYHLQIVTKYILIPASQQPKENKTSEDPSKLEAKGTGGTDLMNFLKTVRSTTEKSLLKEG

This experiment has as its target IDO1 (Homo sapiens, UniProt P14902). Nature of the experiment: IDO1 Cellular Assay in HeLa Cells Stimulated with IFNγ. The format is cell-based. Conditions: IFNγ 100 ng/mL, 300 uM L-tryptophan, about 48 hours, fluorescence readout, read-out: IDO1 HELA Cell Assay, IC50. The procedure:
Biological Assays IDO1 Cellular Assay in HeLa Cells Stimulated with IFNγ
HeLa cells were cultured in complete HeLa culture medium (90% EMEM, 10% heat-inactivated fetal bovine serum) and expanded to about 1×10^9 cells. The cells were then collected and frozen down at 1×10^7 cells/vial in 1 mL frozen medium (90% complete HeLa culture medium, 10% DMSO).
Compounds to be tested were serially diluted in ten 3-fold steps in DMSO starting from 10 mM DMSO stocks in Echo low volume plate(s). Compound dilutions or DMSO alone were then dispensed from the dilution plate(s) into Greiner black 384-well assay plate(s) (catalog #781086, 50 nL/well) using an Echo 550 acoustic liquid handler (Labcyte).
Frozen HeLa cells were thawed and transferred into HeLa assay medium (99% complete HeLa culture medium, 1% Pen/Strep) with 20 mL medium/vial of cells. The cells were spun down at 250 g in a table top centrifuge for 5 min and suspended in same volume of HeLa assay medium. The cells were then counted and adjusted to a density of 2×10^5 cells/mL in HeLa assay medium. Sterile L-tryptophan were added to the cells with final concentration of 300 uM L-tryptophan. A small aliquot (2 mL/plate) of HeLa cells were set aside and were not treated with IFNγ, to serve as the Max-E control.
HeLa cells with and without IFNγ were dispensed to the respective wells of 384-well assay plates containing the compounds. The plates were incubated for about 48 hours at a 37° C., 5% CO2 incubator. Afterwards, 12 μL of 0.5 M methyl isonipecotate in dimethyl sulfoxide were added into each well and the plates were sealed and incubated at 37° C. without CO2 overnight. The plates were centrifuged for 1 min at 200×g. The resulting fluorescence was measured in a Spectramax plate reader (Molecular Devices) with a 400 nm excitation filter and a 510 nm emission filter.
The fluorescence intensity of each well was corrected for the background observed in wells with non-IFNγ-treated cells and was expressed as a fraction of the intensity observed in wells of IFNγ-treated cells and DMSO only. Potencies were calculated by linear least squares fit to the four parameter logistic IC50 equation.
Compounds disclosed herein generally have IC50 of about 0.1 nM to about 20,000 nM, or more specifically, about 1 nM to about 10,000 nM, or more specifically, about 5 nM to about 5,000 nM, or more specifically, about 10 nM to about 1,000 nM, or still more specifically, about 10 nM to about 500 nM.
Usually pIC50 stands for the negative decadic logarithm of the IC50, by convention in mol/L. Regarding `O=C(Cn1nc(C(=O)N2CCC(O)CC2)c2c1CCC2)N1CCC(c2cccc3c2CC3)CC1` [Example 16, 1-(4-(bicyclo[4.2.0]octa-1(6),2,4-trien-2-yl)piperidin-1-yl)-2-(3-(4-hydroxypiperidine-1-carbonyl)-5,6-dihydrocyclopenta[c]pyrazol-1(4H)-yl)ethanone], the pIC50 is 7.60. As for `C[C@@H]1CN(C(=O)c2nn(CC(=O)N3CCC(c4ccccc4Cl)C3)c3c2CCC3)C[C@H](C)O1` (stereo partly drawn) [Example 78, 1-[3-(2-chlorophenyl)pyrrolidin-1-yl]-2-{3-[(2R,6S)-2,6-dimethylmorpholine-4-carbonyl]-5,6-dihydrocyclopenta[c]pyrazol-1(4H)-yl}ethan-1-one], the figure is 6.46; as for `C[C@@H]1CN(C(=O)c2nn(CC(=O)N3CCC(c4cccc5c4CCC5)CC3)c3c2CCC3)C[C@H](C)O1` [Example 86, 1-[4-(2,3-dihydro-1H-inden-4-yl)piperidin-1-yl]-2-{3-[(2R,6S)-2,6-dimethylmorpholine-4-carbonyl]-5,6-dihydrocyclopenta[c]pyrazol-1(4H)-yl}ethan-1-one], 8.14. On to `Cc1cc(C2CCN(C(=O)Cn3nc(C(=O)N4C[C@@H](C)O[C@@H](C)C4)c4c3CCC4)CC2)cc(C)c1Cl` [Example 116, 1-[4-(4-chloro-3,5-dimethylphenyl)piperidin-1-yl]-2-{3-[(2R,6S)-2,6-dimethylmorpholine-4-carbonyl]-5,6-dihydrocyclopenta[c]pyrazol-1(4H)-yl}ethan-1-one], for which the pIC50 is 7.31. On to `C[C@@H]1CN(C(=O)c2nn(CC(=O)N3CCC(c4cccc5ccsc45)CC3)c3c2CCC3)C[C@H](C)O1` [Example 84, 1-[4-(benzothiophen-7-yl)-1-piperidyl]-2-[3-[(2S,6R)-2,6-dimethylmorpholine-4-carbonyl]-5,6-dihydro-4H-cyclopenta[c]pyrazol-2-ium-1-yl]ethanone;2,2,2-trifluoroacetate], for which the pIC50 was 8.33. For `C[C@@H]1CN(C(=O)c2nn(CC(=O)N3CCC(c4ccccc4C(F)(F)F)CC3)c3c2CCC3)C[C@H](C)O1` [Example 71, 2-{3-[(2R,6S)-2,6-dimethylmorpholine-4-carbonyl]-5,6-dihydrocyclopenta[c]pyrazol-1(4H)-yl}-1-{4-[2-(trifluoromethyl)phenyl]piperidin-1-yl}ethan-1-one], the pIC50 was 6.97.

For `C[C@@H]1CN(C(=O)c2nn(CC(=O)N3CCC(c4ccc(F)cc4F)CC3)c3c2CCC3)C[C@H](C)O1` [Example 165, 1-[4-(2,4-difluorophenyl)piperidin-1-yl]-2-{3-[(2R,6S)-2,6-dimethylmorpholine-4-carbonyl]-5,6-dihydrocyclopenta[c]pyrazol-1(4H)-yl}ethan-1-one], the pIC50 was 6.63. In the case of `Cc1cccc(C2CCN(C(=O)Cn3nc(C(=O)N4CCC(C)(O)CC4)c4c3CCC4)CC2)c1C` [Example 40, 1-(4-(2,3-dimethylphenyl)piperidin-1-yl)-2-(3-(4-hydroxy-4-methylpiperidine-1-carbonyl)-5,6-dihydrocyclopenta[c]pyrazol-1(4H)-yl)ethan-1-one], the pIC50 is 8.55.

For `Cc1cc(F)ccc1C1CCN(C(=O)Cn2nc(C(=O)N3CCN(C(=O)CO)CC3)c3c2CCC3)CC1` [Example 57, 1-(4-(4-fluoro-2-methylphenyl)piperidin-1-yl)-2-(3-(4-(2-hydroxyacetyl)piperazine-1-carbonyl)-5,6-dihydrocyclopenta[c]pyrazol-1(4H)-yl)ethanone], the pIC50 is 6.54.

As to `Cc1cc(F)ccc1C1CCN(C(=O)Cn2nc(C(=O)N3CCC(O)(CF)CC3)c3c2CCC3)CC1` [Example 53, 1-(4-(4-fluoro-2-methylphenyl)piperidin-1-yl)-2-(3-(4-(fluoromethyl)-4-hydroxypiperidine-1-carbonyl)-5,6-dihydrocyclopenta[c]pyrazol-1 (4H)-yl)ethanone], the pIC50 was 6.94.
